Among the data in ChEMBL document CHEMBL2429838, “Synthesis and antitumor activity evaluation of 2-arylisoquinoline-1,3(2H,4H)-diones in vitro and in vivo” (Med Chem Res, 2013) are IC50, inhibition in vivo and TGI values, retold here.

By IC50 is commonly meant the midpoint of a concentration-inhibition curve. The low end stands for greater potency, the high end for weaker potency.

Some results are limits rather than exact numbers.

The test system of one assay is A-431. In words: Cytotoxicity against human A431 cells after 48 hrs by MTT assay. Type of assay: functional, cell-based. The note with it: A-431, 48 h.
For a further assay, the system named is PC-3. The assay can be described thus: Cytotoxicity against human PC3 cells after 48 hrs by MTT assay. The note with it: PC-3, 48 h. It counts as functional, cell-based. A general note: Formazan colour is commonly taken as a measure of viable cells.
In a further assay the test system is A549. In words: Cytotoxicity against human A549 cells after 48 hrs by MTT assay. Type of assay: functional, cell-based. The settings on record: A549, 48 h.
The subject of assay [1] is PANC-1. In words: Antitumor activity against human PANC1 cells xenografted in mouse assessed as tumor growth inhibition at 25 mg/kg, po qd for 13 days measured up to 21 days. Type of assay: functional. The settings on record: read-out: TGI. For orientation: In xenograft studies the graft and the host belong to different species.
In assay [2] the test system is PANC-1. In words: Antitumor activity against human PANC1 cells xenografted in mouse assessed as tumor growth inhibition at 5 mg/kg, po qd for 13 days measured up to 21 days. Type of assay: functional. The note with it: read-out: TGI.
The test system of assay [3] is PANC-1. The assay can be described thus: Antitumor activity against human PANC1 cells xenografted in po dosed mouse assessed as tumor growth inhibition administered qd for 13 days measured up to 21 days. Type of assay: functional, organism-based.

Turning to `O=C(Nc1nc2ccc(N3C(=O)Cc4ccccc4C3=O)cc2s1)C1CC1`, the 50% inhibitory concentration (IC50) with A-431 is 46.8 µM; in the assay with PC-3 it was 16.7 µM; with A549, 22.3 µM.

For the molecule `O=C(Nc1nc2ccc(N3C(=O)Cc4ccc(F)cc4C3=O)cc2s1)C1CC1`, the half-inhibitory concentration (IC50) in the assay on A-431 came out at 8.64 µM; in the assay with PC-3, 11.7 µM; with A549, 12.6 µM.

`COc1cc2c(c(OC)c1)C(=O)N(c1ccc3nc(NC(=O)C4CC4)sc3c1)C(=O)C2`: the IC50 in the assay on A-431 stood at 7.01 µM; in the assay on PC-3, 7.7 µM; in the assay with A549, 12.7 µM. The inhibition in vivo at 25 mg/kg in the assay with PANC-1 [1] came to 31.5%. For the same molecule, the inhibition in vivo at 5 mg/kg with PANC-1 [2] amounted to 23.7%. Further, the TGI result with PANC-1 [3] is “Dose-dependent effect”.

As for `COc1cc2c(c(OC)c1)C(=O)N(c1ccc3nc(NC(C)=O)sc3c1)C(=O)C2`, the figures for the IC50 in the assay with A-431, in the assay on PC-3 and with A549 were 11.9 µM, 11.2 µM and 20.5 µM, respectively.

Regarding `COc1ccc(N2C(=O)Cc3cc(OC)cc(OC)c3C2=O)cc1`, the IC50 with A-431 was 78.9 µM; in the assay on PC-3 it was greater than 100 µM; in the assay on A549, greater than 100 µM.

`COc1ccc2c(c1)CC(=O)N(c1ccc3nc(NC(=O)C4CC4)sc3c1)C2=O`: the IC50 is 12 µM with A-431, 10.5 µM in the assay with PC-3 and 20.7 µM in the assay with A549.

In the case of `COc1cc2c(c(OC)c1)C(=O)N(c1ccc(C)cc1)C(=O)C2`, the IC50 is 47.6 µM in the assay on A-431, 21 µM in the assay with PC-3 and 43.6 µM with A549.

For the molecule `O=C(Nc1ccc2nc(NC(=O)C3CC3)sc2c1)c1c(Cl)cccc1Cl`, the IC50 with PC-3 worked out at 2.01 µM; in the assay with A549 it was 9 µM.

As for `COc1cc2c(c(OC)c1OC)C(=O)N(c1ccc3nc(NC(=O)C4CC4)sc3c1)C(=O)C2`, the half-inhibitory concentration (IC50) was determined as 7.58 µM with A-431, 20.6 µM with PC-3 and 16.2 µM in the assay with A549.

With `C#Cc1cccc(N2C(=O)Cc3cc(OC)cc(OC)c3C2=O)c1`, the values for the 50% inhibitory concentration (IC50) in the assay with A-431, in the assay with PC-3 and in the assay on A549 were 60.4 µM, 28.9 µM and greater than 100 µM, respectively.

As to `COc1cc2c(c(OC)c1)C(=O)N(c1ccc(C(F)(F)F)cc1)C(=O)C2`, the values for the half-inhibitory concentration (IC50) in the assay with A-431, in the assay with PC-3 and with A549 were 32.8 µM, 17.1 µM and 32.1 µM, respectively.

As to `COc1cc2c(c(OC)c1)C(=O)N(c1cccc(C(F)(F)F)c1)C(=O)C2`, the IC50 in the assay on A-431 is 62.5 µM; in the assay with PC-3, 45.3 µM; in the assay with A549 it was greater than 100 µM.
